Assay results reported in patent publication US9353107B2 (Aurigene Discovery Technologies Limited, priority 2012, dated 2016).

Target: T1, recombinant human ALK enzyme (ALK WT) (Homo sapiens, UniProt Q9UM73)
T1 construct: purchased Carna Biosciences 08-518
Experiment: ALK WT cell free enzymatic assay (TR-FRET)
Assay type: biochemical
Details: 1 μM ATP; for IC50: 10 point dose response; for inhibition at 0.1 µM: compound at 100 nM; for inhibition at 0.1 µM / inhibition at 1 µM: 30 min pre-incubation; for inhibition at 1 µM: compound at 1 μM
In short: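 Recombinant human ALK with 40 nM Ultra Light Poly GT, 1 μM ATP and Eu anti-phosphotyrosine antibody, 1% DMSO, pH 7.1 HEPES; 30 min enzyme-compound pre-incubation, then 30 min reaction. TR-FRET 665/615 ratio; percent inhibition at 100 nM and 1 μM, IC50 from 10-point sigmoidal fit.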

T1 sequence (Q9UM73 1058-1620 limits assumed): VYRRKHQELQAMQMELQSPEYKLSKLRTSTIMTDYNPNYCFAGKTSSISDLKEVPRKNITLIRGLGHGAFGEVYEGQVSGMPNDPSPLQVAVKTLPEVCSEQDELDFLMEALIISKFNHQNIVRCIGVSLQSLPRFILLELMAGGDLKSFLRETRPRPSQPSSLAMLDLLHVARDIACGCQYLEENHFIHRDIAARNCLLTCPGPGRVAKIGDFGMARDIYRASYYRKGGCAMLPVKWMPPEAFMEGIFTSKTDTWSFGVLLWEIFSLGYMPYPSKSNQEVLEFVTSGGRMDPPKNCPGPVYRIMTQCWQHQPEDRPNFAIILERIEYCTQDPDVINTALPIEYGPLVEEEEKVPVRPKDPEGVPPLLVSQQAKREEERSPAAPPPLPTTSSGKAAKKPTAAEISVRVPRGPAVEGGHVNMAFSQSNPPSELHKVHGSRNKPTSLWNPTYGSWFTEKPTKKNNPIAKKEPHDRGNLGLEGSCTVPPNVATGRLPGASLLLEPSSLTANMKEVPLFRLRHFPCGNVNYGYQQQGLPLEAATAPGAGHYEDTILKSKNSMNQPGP

IC50 [nM]	inhibition at 0.1 µM [%]	inhibition at 1 µM [%]	SMILES
< 50	92	100	NC(=O)CN1CCC(Cc2cccc(-c3cnc4[nH]cc(-c5cnn(Cc6cccc(F)c6)c5)c4c3)c2)CC1 [Example 184, 2-(4-(3-(3-(1-(3-fluorobenzyl)-1H-pyrazol-4-yl)-1H-pyrrolo[2,3-b]pyridin-5-yl)benzyl)piperidin-1-yl)acetamide]
	80	86	c1ccc(CCn2cc(-c3c[nH]c4ncc(-c5ccc(N6CCNCC6)cc5)cc34)cn2)cc1 [Example 185, 3-(1-phenethyl-1H-pyrazol-4-yl)-5-(4-(piperazin-1-yl)phenyl)-1H-pyrrolo[2,3-b]pyridine]
< 50	83	96	Cc1nn(Cc2cccc(F)c2)c(C)c1-c1c[nH]c2ncc(-c3cccc(N4CCN(CCO)CC4)c3)cc12 [Example 186, 2-(4-(3-(3-(1-(3-fluorobenzyl)-3,5-dimethyl-1H-pyrazol-4-yl)-1H-pyrrolo[2,3-b]pyridin-5-yl)phenyl)piperazin-1-yl)ethanol]
